Test results published in US20260248087A1, “GENERATING DOUBLED HAPLOID PLANTS” (Syngenta Crop Protection AG, priority 2023, published 2026).

What was measured:
embryos from maize ears = test: Potted rate after metcamifen pre-treatment of isolated embryos; type: in vivo
Excerpt: (§1) As used herein, the term “potted rate” or “potting rate” refers to the percent of germinated embryos successfully transferred to soil from total treated haploid embryos. The “potted rate” is used as an indication of plant health in monitoring the success of recovery and growth after treatment of haploids. As used herein, the term “transplant rate” refers to the survival of healthy plants after embryos were germinated and transferred to soil.
Embryos from maize ears were isolated and treated with metcamifen prior to a colchicine doubling treatment. Isolated embryos plated on filter paper were pre-treated with a formulation of metcamifen at concentrations of 0, 10, 100, and 1000 mg/L in Murashige and Skoog Medium (MS media) for a duration of 1, 3, 5, or 7 days at 6° C. with 150 PAR light. GST27 induction was measured after pre-treatment at each time point and again at the end of the colchicine treatment. Resulting embryos were germinated, and the percentage of embryos successfully transferred to soil (percent potted rate) was measured as an indicator of plant health and pre-treatment effectiveness. GST27 was induced by metcamifen at a medium level ([…] of TSP), but higher than ear pre-treatment that was less than 10 ng/ml of TSP.
Embryo pre-treatment with metcamifen at 10 mg/L was tested at temperatures of 6° C. and 20° C. for 1 day to measure the impact of temperature on embryo health.

corn embryos = test: Uptake of metcamifen and metabolism of colchicine in corn embryos (LCMS); type: in vitro ADME
Protocol: An experiment was completed to evaluate the uptake of metcamifen into corn embryos, whether colchicine is metabolized in the embryos, and if metcamifen increased the rate of colchicine metabolism. Corn embryos were co-treated with 500 ppm colchicine in the presence of 200 ppm, 1000 ppm or no metcamifen (control) for 24 or 48 hours and frozen. One biological replicate was represented by five embryos, and three biological replicates were used per co-treatment.
Prior to extraction, embryos were washed for 20 seconds in 80:20 (v/v) acetonitrile:H2O to remove any colchicine and metcamifen on the surface. Each replicate was extracted in 0.5 ml methanol using a fast prep maceration method. Then, samples were diluted 1 in 10 prior to analysis by Liquid Chromatography Mass Spectrometry (LCMS). Samples were analyzed alongside matrix matched standards of colchicine and metcamifen. Metabolite investigations were performed to identify any metabolites.

isolated embryos [1] = test: Potted rate after metcamifen co-treatment during colchicine doubling; type: in vivo, maize; details: for Potted Rate Mean: co-treatment with colchicine
Protocol: as §1
Isolated embryos were treated with metcamifen during colchicine doubling (also referred to as co-treatment). Metcamifen was added in the colchicine co-treatment media (a.k.a. doubling media) as a formulation at concentrations of 0, 200, 400, 800, 1200 mg/L. Metcamifen concentrations tested for a 24-hour duration ranged from 0-1000 mg/L. Metcamifen concentrations tested for a 48-hour condition ranged from 0-1200 mg/L. Three to four genotypes representing two heterotic groups were tested.
Initial testing on three genotypes included co-treatment of metcamifen and colchicine in Gelzan media at 28° C. with 150 PAR light at concentrations of 0, 200, and 1000 mg/L to identify a range of working concentrations. The 200 and 1000 mg/L concentrations induced similar GST27 expression levels for both the 24- and 48-hour durations. The resulting induction was higher (400 ng/mg TSP GST27) than recorded with pre-treatments of ears or isolated embryos. […] Metcamifen co-treatment of isolated embryos optimization continued by testing levels of 0, 400, 600, and 800 mg/L for 24 and 48 hours with 4 genotypes across 2 heterotic groups. GST induction (ng/mg TSP) was measured after metcamifen co-treatment. […] The percent potted rate after metcamifen co-treatment was similar for both time durations when sorted by genotype or heterotic group.

isolated embryos [2] = test: Potting and transplant rate, thiamethoxam liquid media pre-treatment prior to colchicine doubling; type: in vivo, maize
Excerpt: as §1
TMX pre-treatment application to isolated embryos prior to colchicine doubling was done in 2 genotypes with replication. Isolated embryos were plated on filter paper and pre-treated with a formulation of TMX at concentrations ranging from 10-1000 mg/L in liquid media. The pre-treatments incubated for 0.5 to 24 hours. Following the pre-treatment, embryos were treated with colchicine for chromosome doubling and plant regeneration. The effect on potting rate and transplant rate were evaluated (see Table 10).
In a follow-up experiment, the liquid pre-treatment was tested at 30 minute and 1-hour durations to determine if a shorter duration would result in better potting and transplant rates than observed in the 1 hour treatments shown in Table 10. These were performed in the same manner as described above, in triplicate.

doubled haploids = test: Potting rate, thiamethoxam post-treatment during germination; type: in vivo, maize; details: 14-21 days
Excerpt: as §1
TMX was applied to doubled haploids by adding it to the germination media during the germination process. TMX was tested in 3 genotypes, in triplicate, with concentrations ranging from […], and the post-treatments incubated for 14 to 21 days (the normal duration of the regeneration period before transplant). The effect on potting rate was evaluated (see Table 12); no plants were advanced for transplant rate assessments due to poor germination.

[3] = initial testing, 200 and 1000 mg/L, 24-hour co-treatment
[4] = Table 10: liquid media pre-treatment, TMX 10 mg/L, 1 hr
[5] = Table 10: liquid media pre-treatment, TMX 10 mg/L, 24 hr
[6] = Table 10: liquid media pre-treatment, TMX 100 mg/L, 1 hr
[7] = Table 10: liquid media pre-treatment, TMX 100 mg/L, 24 hr
[8] = Table 10: liquid media pre-treatment, TMX 1000 mg/L, 1 hr
[9] = Table 10: liquid media pre-treatment, TMX 1000 mg/L, 24 hr
[10] = Table 11: liquid pre-treatment, TMX 100 mg/L, 30 min
[11] = Table 11: liquid pre-treatment, TMX 100 mg/L, 1 hr
[12] = Table 11: liquid pre-treatment, TMX 1000 mg/L, 30 min
[13] = Table 11: liquid pre-treatment, TMX 1000 mg/L, 1 hr

CNC(=O)Nc1ccc(S(=O)(=O)NC(=O)c2ccccc2OC)cc1 [Metcamifen, metcamifen]
Potted Rate Mean (embryos from maize ears; embryo pre-treatment 10 mg/L in MS media, 1 day, 6° C. (Table 3 experiment)): 62% | Potted Rate Mean (embryos from maize ears; embryo pre-treatment 10 mg/L in MS media, 1 day, 6° C. (Table 3 experiment), listed as metcamifen): significantly higher potting rate than the control | Potted Rate Mean (embryos from maize ears; embryo pre-treatment 10 mg/L in MS media, 1 day, 20° C.): 23% | Potted Rate Mean (embryos from maize ears; embryo pre-treatment 10 mg/L in MS media, 1 day, 20° C., listed as metcamifen): 2% | Potted Rate Mean (embryos from maize ears; embryo pre-treatment in MS media, 10 mg/L, 1 day, 6° C.): 46% | Potted Rate Mean (embryos from maize ears; embryo pre-treatment in MS media, 10 mg/L, 3 days, 6° C.): 38% | Potted Rate Mean (embryos from maize ears; embryo pre-treatment in MS media, 10 mg/L, 5 days, 6° C.): 4% | Potted Rate Mean (embryos from maize ears; embryo pre-treatment in MS media, 10 mg/L, 7 days, 6° C.): 27% | Potted Rate Mean (embryos from maize ears; embryo pre-treatment in MS media, 100 mg/L, 1 day, 6° C.): 12% | Potted Rate Mean (embryos from maize ears; embryo pre-treatment in MS media, 100 mg/L, 3 days, 6° C.): 12% | Potted Rate Mean (embryos from maize ears; embryo pre-treatment in MS media, 100 mg/L, 5 days, 6° C.): 16% | Potted Rate Mean (embryos from maize ears; embryo pre-treatment in MS media, 100 mg/L, 7 days, 6° C.): 24% | Potted Rate Mean (embryos from maize ears; embryo pre-treatment in MS media, 1000 mg/L, 1 day, 6° C.): 10% | Potted Rate Mean (embryos from maize ears; embryo pre-treatment in MS media, 1000 mg/L, 3 days, 6° C.): 16% | Potted Rate Mean (embryos from maize ears; embryo pre-treatment in MS media, 1000 mg/L, 5 days, 6° C.): 17% | Potted Rate Mean (embryos from maize ears; embryo pre-treatment in MS media, 1000 mg/L, 7 days, 6° C.): 17% | effect of metcamifen on amount of colchicine recovered (corn embryos; 500 ppm colchicine with 200 or 1000 ppm metcamifen): did not reduce the amount of colchicine recovered | metcamifen in embryo extracts (uptake) (corn embryos; co-treated with 500 ppm colchicine and 200 or 1000 ppm metcamifen, 24 and 48 hours): could be detected | recovery amount of colchicine metabolite (−14, O-demethylation) (corn embryos; duration and metcamifen co-treatment): increased | Potted Rate Mean (isolated embryos [1]; 200 mg/L, 24 hours): 84% | Potted Rate Mean (isolated embryos [1]; 400 mg/L, 24 hours): 84% | Potted Rate Mean (isolated embryos [1]; 400 mg/L, 48 hours): 14% | Potted Rate Mean (isolated embryos [1]; 800 mg/L, 24 hours): 92% | Potted Rate Mean (isolated embryos [1]; 800 mg/L, 48 hours): 73% | Potted Rate Mean (isolated embryos [1]; 1200 mg/L, 48 hours): 71% | percent potted rate versus 1000 mg/L and control (isolated embryos [1]; initial testing, 200 mg/L, 48-hour co-treatment): increased the percent potted rate | doubled haploid ears produced versus the control (isolated embryos [1]; [3]): increase in the doubled haploid ears produced | percent potted rate versus the control (isolated embryos [1]; [3]): increased the percent potted rate

CN1COCN(Cc2cnc(Cl)s2)/C1=N\[N+](=O)[O-] [TMX, thiamethoxam]
Potting Rate Mean (isolated embryos [2]; [4]): 55% | Transplant Rate Mean (isolated embryos [2]; [4]): 51% | Potting Rate Mean (isolated embryos [2]; [5]): 7% | Transplant Rate Mean (isolated embryos [2]; [5]): 7% | Potting Rate Mean (isolated embryos [2]; [6]): 38% | Transplant Rate Mean (isolated embryos [2]; [6]): 37% | Potting Rate Mean (isolated embryos [2]; [7]): 15% | Transplant Rate Mean (isolated embryos [2]; [7]): 15% | Potting Rate Mean (isolated embryos [2]; [8]): 58% | Transplant Rate Mean (isolated embryos [2]; [8]): 55% | Potting Rate Mean (isolated embryos [2]; [9]): 11% | Transplant Rate Mean (isolated embryos [2]; [9]): 11% | Potting Rate Mean (isolated embryos [2]; [10]): 68% | Transplant Rate Mean (isolated embryos [2]; [10]): 54% | Potting Rate Mean (isolated embryos [2]; [11]): 77% | Transplant Rate Mean (isolated embryos [2]; [11]): 66% | Potting Rate Mean (isolated embryos [2]; [12]): 51% | Transplant Rate Mean (isolated embryos [2]; [12]): 42% | Potting Rate Mean (isolated embryos [2]; [13]): 74% | Transplant Rate Mean (isolated embryos [2]; [13]): 56% | Potting Rate Mean (doubled haploids; TMX 0.5 g/L): 53% | Potting Rate Mean (doubled haploids; TMX 1 g/L): 50% | Potting Rate Mean (doubled haploids; TMX 1.5 g/L): 27% | Potting Rate Mean (doubled haploids; TMX 5 g/L): 3% | Potting Rate Mean (doubled haploids; TMX 12 g/L): 0%
